Test results from patent US20180201647A1, “Peptoid” (The University of Durham, priority 2015, published 2018).
Where a SMILES comes first, the peptide text is derived from it. [ ]: non-standard residue; d: D form. Nspe = C[C@H](NCC(=O)O)c1ccccc1; NhArg = N=C(N)NCCCCNCC(=O)O; Nlys = NCCCCNCC(=O)O

Experiments:
Format in all cases: cell-based
[1] = tested on: S. aureus (NCTC 6571) biofilm; assay: Single species biofilm treatment, crystal violet assay; conditions: 100 μM peptoid, 24 hours, FIG. 17B
Method: (§1) C. albicans (NCTC 3179) was subcultured aerobically on Sabouraud agar plates and propagated in yeast peptone dextrose broth. E. coli (ATCC 29522) and S. aureus (NCTC 6571) were grown on blood agar plates and propagated in brain heart infusion (BHI) broth.
(§2) Overnight cultures of C. albicans were washed and resuspended in a modified RPMI-1640 (Sigma-Aldrich, St Louis, USA) medium to yield an inoculum of 1.0×10^6 cells/ml. Overnight cultures of S. aureus or E. coli were washed and resuspended in brain heart infusion broth (Oxoid, Basingstoke, UK) to yield an inoculum of 5.0×10^6 cells/ml. A total volume of 100 μl of each inoculum was added to microtitre plate wells (Thermo Fisher Scientific, Roskilde, Denmark). An initial biofilm was allowed to form for 4 hours. Wells were washed three times with 200 μl PBS to facilitate removal of planktonic cells and the biofilms were then treated with 100 μM of peptoids 1-4 in the appropriate broth. Plates were incubated for a further 24 hours to allow biofilm maturation. After removal of planktonic cells by washing, biofilms were quantified by the crystal violet assay or by PMA-qPCR.
(§3) Biofilm quantification by crystal violet assay Washed biofilms were fixed with 100 μl methanol for 10 minutes. Following removal of methanol, the wells were air dried and stained with crystal violet solution (Clin-Tech Ltd, Guildford, UK) for 20 minutes at room temperature. Excess stain was removed by washing, the plate was then air dried and bound crystal violet was re-solubilised in 16 μl 33% acetic acid prior to reading at 570 nm in a microtitre plate reader (Tecan GENios, Ziirich, Switzerland).

[2] = tested on: Leishmania mexicana (M379); conditions: for IC50: parasite stage not given, read-out: IC50 L. mexicana; for active against L. mexicana: statement in words
Method: Leishmania mexicana (M379) promastigote parasites were maintained at 26° C. in Schneider's Insect medium (Sigma-Aldrich) supplemented with heat-inactivated foetal bovine sera (FBS, 15%; Biosera Ltd). Cells were counted using a Neubauer Improved Haemocytometer. Promastigotes were transformed into axenic amastigotes by a pH and temperature shift as previously described. A culture of recently transformed (three days) promastigotes in the late log phase was transferred into Schneider's Insect medium supplemented with 20% heat-inactivated FBS (pH 5.5) at 5×10^5 parasites/mL. After 6 days, the parasites were in the metacyclic stage and used for transformation to amastigote-like forms by transfer in the same medium at 32° C. at 5×10^5 parasites/mL. After additional 5-7 days, the parasites should be in the amastigote stage and be ready for cytotoxicity studies and infections.
Cytotoxicity analyses were performed in 96-well plates (Costar, Fisher Scientific) using Alamar Blue (Invitrogen) for cell viability detection as previously described.
Promastigote and amastigote L. mexicana were pre-incubated with the compounds in triplicate (5 mM stock solutions in DMSO; Amphotericin B was used as a positive control; untreated parasites with DMSO as a negative control) in 50 μl of the corresponding media at 4×106 mL-1 for 1 hour. Afterwards, 40 μl were removed from each well before the addition of 90 μl of the corresponding media, followed by incubation for 24 hours at 4×105 mL-1. Then, 10 μl Alamar Blue solution (Invitrogen) was added to each well for an incubation of 4 hours prior to assessing cell viability using a fluorescent plate reader (Biotek; Ex 560 nm/Em 600 nm). To investigate the effects of serum on the efficacy of the peptoids, the assay described above was modified using serum-free medium for the pre-incubation time. For these assays, the parasites were washed three times in serum-free medium before adding them to the compound solutions. All of the experiments described above were carried out on a minimum of two separate occasions to ensure a robust data set was collected.

[3] = tested on: T. cruzi Tulahuen strain C2C4; assay: microbe, parasite or virus in culture; conditions: for IC50: in L-6 cells, 96 h, read-out: IC50 T. cruzi; for active against T. cruzi: statement in words
Method: Rat skeletal myoblasts (L-6 cells) were seeded in 96-well microtitre plates at 2000 cells/well in 100 μL RPMI 1640 medium with 10% FBS and 2 mM 1-glutamine. After 24 h the medium was removed and replaced by 100 μl per well containing 5000 trypomastigote forms of T. cruzi Tulahuen strain C2C4 containing the β-galactosidase (Lac Z) gene. After 48 h the medium was removed from the wells and replaced by 100 μl fresh medium with or without a serial drug dilution of eleven 3-fold dilution steps covering a range from 100 to 0.002 μg/ml. After 96 h of incubation the plates were inspected under an inverted microscope to assure growth of the controls and sterility. Then the substrate CPRG/Nonidet (50 μl) was added to all wells. A color reaction developed within 2-6 h and could be read photometrically at 540 nm. Data were analyzed with the graphic programme Softmax Pro (Molecular Devices), which calculated IC50 values by linear regression from the sigmoidal dose inhibition curves. Benznidazole is used as control (IC50 0.5+0.2 μg/ml).

[4] = tested on: L. donovani strain MHOM/ET/67/L82 axenic amastigotes; conditions: for active against L. donovani: statement in words; for IC50: strain MHOM/ET/67/L82 axenic amastigotes, 70 h
Method: Amastigotes of L. donovani strain MHOM/ET/67/L82 were grown in axenic culture at 37° C. in SM medium^24 at pH 5.4 supplemented with 10% heat-inactivated fetal bovine serum under an atmosphere of 5% CO2 in air. One hundred microlitres of culture medium with 10^5 amastigotes from axenic culture with or without a serial drug dilution were seeded in 96-well microtitre plates. Serial drug dilutions of eleven 3-fold dilution steps covering a range from 90 to 0.002 μg/ml were prepared. After 70 h of incubation the plates were inspected under an inverted microscope to assure growth of the controls and sterile conditions. 10 μl of Alamar Blue (12.5 mg resazurin dissolved in 100 ml distilled water) were then added to each well and the plates incubated for another 2 h. Then the plates were read with a Spectramax Gemini XS microplate fluorometer (Molecular Devices Cooperation, Sunnyvale, Calif., USA) using an excitation wave length of 536 nm and an emission wave length of 588 nm. Data were analyzed using the software Softmax Pro (Molecular Devices Cooperation, Sunnyvale, Calif., USA). Decrease of fluorescence (=inhibition) was expressed as percentage of the fluorescence of control cultures and plotted against the drug concentrations. From the sigmoidal inhibition curves the IC50 values were calculated.

[5] = tested on: E. coli (ATCC 29522) biofilm; assay: Single species biofilm treatment, crystal violet assay; conditions: 100 μM peptoid, 24 hours, FIG. 17C
Method: as §1, §2, §3

C[C@@H](c1ccccc1)N(CC(N)=O)C(=O)CN(C(=O)CN(CCCCNC(=N)N)C(=O)CN(C(=O)CN(C(=O)CN(CCCCNC(=N)N)C(=O)CN(C(=O)CN(C(=O)CN(CCCCN)C(=O)CN(C(=O)CN(C(=O)CNCCCCN)[C@@H](C)c1ccccc1)[C@@H](C)c1ccccc1)[C@@H](C)c1ccccc1)[C@@H](C)c1ccccc1)[C@@H](C)c1ccccc1)[C@@H](C)c1ccccc1)[C@@H](C)c1ccccc1 [Peptoid 1, (NLys-Nspe-Nspe)2(NhArg-Nspe-Nspe)2] (H-[Nlys][Nspe][Nspe][Nlys][Nspe][Nspe][NhArg][Nspe][Nspe][NhArg][Nspe][Nspe]-NH2; N-terminus assumed)
activity against the S. aureus biofilm [1]: strongest anti-bacterial activity
IC50 [2]: 37 µM
active against L. mexicana [2]: active
IC50 [3]: 12.3 µM
active against T. cruzi [3]: active
active against L. donovani [4]: active
IC50 [4]: 11.1 µM

C[C@@H](c1ccccc1)N(CC(N)=O)C(=O)CN(C(=O)CN(CCCCN)C(=O)CN(C(=O)CN(C(=O)CN(CCCCNC(=N)N)C(=O)CN(C(=O)CN(C(=O)CN(CCCCN)C(=O)CN(C(=O)CN(C(=O)CNCCCCNC(=N)N)[C@@H](C)c1ccccc1)[C@@H](C)c1ccccc1)[C@@H](C)c1ccccc1)[C@@H](C)c1ccccc1)[C@@H](C)c1ccccc1)[C@@H](C)c1ccccc1)[C@@H](C)c1ccccc1 [Peptoid 4, [(NhArg-Nspe-Nspe)(NLys-Nspe-Nspe)]2] (H-[NhArg][Nspe][Nspe][Nlys][Nspe][Nspe][NhArg][Nspe][Nspe][Nlys][Nspe][Nspe]-NH2; N-terminus assumed)
activity against the E. coli biofilm [5]: strongest anti-bacterial activity
IC50 [2]: 37 µM
active against L. mexicana [2]: active
IC50 [3]: 21.5 µM
active against T. cruzi [3]: active
active against L. donovani [4]: active
IC50 [4]: 19.9 µM
